Source: patent US20210260101A1, “POTENTIATED ANTIBIOTIC COMPOSITIONS AND METHODS OF USE FOR TREATING BACTERIAL INFECTIONS AND BIOFILMS” (priority 2018, published 2021)
Converted amounts (≈) assume the structure as drawn. Read-outs that look alike come from different tables or passages of the source.

Tests used:
[1] = test system: MRSA clinical isolate OU6; experiment: Clinical laboratory susceptibility (MicroScan), MRSA isolate 6; assay type: cell-based, S. aureus; conditions: MicroScan PC33 gram positive panel
[2] = test system: MRSA clinical isolate OU11; experiment: Clinical laboratory susceptibility (MicroScan), MRSA isolate 11; assay type: cell-based, S. aureus; conditions: MicroScan PC33 gram positive panel
[3] = test system: clinical isolates OU15, OU19, and OU22; experiment: Checkerboard assay, isolates OU15, OU19 and OU22 reported together; assay type: cell-based, Pseudomonas aeruginosa; conditions: for MIC: Pseudomonas aeruginosa; for interaction with BPEI600: isolates OU15, OU19, OU22 (data not shown)
Procedure: Cells were grown at 35° C. with shaking. The OD600 (optical density at 600 nm) was monitored and recorded for each sample over 24 hr. Each checkerboard trial was done in triplicate using sterile Greiner CellStar™ flat bottom polystyrene plates, catalog #655180. Each growth curve was done in duplicate.

MRSA USA 300 ATCC 1717 = experiment: Checkerboard MIC assay against MRSA USA300 (Example 1); assay type: cell-based, Staphylococcus aureus; conditions: MRSA USA300; for MIC: Staphylococcus aureus, agent alone, read-out: MIC of antibiotic only
[4] = test system: S. epidermidis ATCC 35984 (MRSE 35984); experiment: MIC/potentiation against MRSE 35984 (Example 1); assay type: cell-based, Staphylococcus epidermidis; conditions: for MIC of antibiotic only: agent alone
[5] = test system: S. epidermidis ATCC 12228 (MSSE 12228); experiment: MIC/potentiation against MSSE 12228; assay type: cell-based, Staphylococcus epidermidis; conditions: for MIC of antibiotic only: agent alone

Molecule | MIC [1] | MIC [2] | MIC with 4 μg/ml (6.75 μM) 600-Da BPEI (MRSA USA 300 ATCC 1717) | MIC (MRSA USA 300 ATCC 1717) | other results
CCC[C@@H]1C[C@@H](C(=O)N[C@@H]([C@H]2O[C@H](SC)[C@H](O)[C@@H](O)[C@H]2O)[C@H](C)Cl)N(C)C1 [Clindamycn] | > 4 µg/mL | > 4 µg/mL |  |  | 
CCCCCCCCCC(=O)N[C@@H](Cc1c[nH]c2ccccc12)C(=O)N[C@H](CC(N)=O)C(=O)N[C@@H](CC(=O)O)C(=O)N[C@@H]1C(=O)NCC(=O)N[C@@H](CCCN)C(=O)N[C@@H](CC(=O)O)C(=O)N[C@H](C)C(=O)N[C@@H](CC(=O)O)C(=O)NCC(=O)N[C@H](CO)C(=O)N[C@@H]([C@H](C)CC(=O)O)C(=O)N[C@@H](CC(=O)c2ccccc2N)C(=O)O[C@@H]1C [Daptomycin] | ≤ 0.5 µg/mL | ≤ 0.5 µg/mL |  |  | 
CC[C@H]1OC(=O)[C@H](C)[C@@H](O[C@H]2C[C@@](C)(OC)[C@@H](O)[C@H](C)O2)[C@H](C)[C@@H](O[C@@H]2O[C@H](C)C[C@H](N(C)C)[C@H]2O)[C@](C)(O)C[C@@H](C)C(=O)[C@H](C)[C@@H](O)[C@]1(C)O [Erythromycin] | > 4 µg/mL | > 4 µg/mL |  |  | MIC [3]: 256 µg/mL; MIC ([3]; read-out: erythromycin MIC in the presence of 16 μg/mL of BPEI600): 64 µg/mL; factor of reduction of erythromycin MIC by BPEI600 ([3]; data not shown): 4; interaction with BPEI600 [3]: exhibited synergy
CN(C)[C@@H]1C(O)=C(C(N)=O)C(=O)[C@@]2(O)C(O)=C3C(=O)c4c(O)cccc4[C@@](C)(O)[C@H]3C[C@@H]12 [Tetracycline] | ≤ 4 µg/mL | ≤ 4 µg/mL |  |  | 
CC1(C)S[C@@H]2[C@H](NC(=O)[C@H](N)c3ccc(O)cc3)C(=O)N2[C@H]1C(=O)O [amoxicillin] |  |  | 1 µg/mL | 4 µg/mL | 
CO/N=C(\C(=O)N[C@@H]1C(=O)N2C(C(=O)O)=CCS[C@H]12)c1csc(N)n1 [ceftizoxime] |  |  |  | 128 µg/mL | MIC, antibiotic + 32 μg/ml (20 μM) PEG1000BPEI600 (MRSA USA 300 ATCC 1717): 8 µg/mL; MIC, antibiotic + 64 μg/ml (40 μM) PEG1000BPEI600 (MRSA USA 300 ATCC 1717): 0.5 µg/mL
CC1=C(C(=O)O)N2C(=O)[C@@H](NC(=O)[C@H](N)c3ccccc3)[C@H]2SC1 [cephalexin] |  |  | 0.5 µg/mL | 2 µg/mL | 
C[C@@H](O)[C@H]1C(=O)N2C(C(=O)O)=C(SCCN=CN)C[C@H]12 [imipenem] |  |  | 0.03 µg/mL | 4 µg/mL | 
CC(=O)NC[C@H]1CN(c2ccc(N3CCOCC3)c(F)c2)C(=O)O1 [linezolid] | 2 µg/mL (≈ 5.93 µM) | 2 µg/mL (≈ 5.93 µM) | 0.5 µg/mL | 0.5 µg/mL | MIC, antibiotic + 2 μg/ml (3.375 μM) 600-Da BPEI [4]: 0.5 µg/mL; MIC, antibiotic + 4 μg/ml (6.75 μM) 600-Da BPEI [4]: 0.25 µg/mL; MIC of antibiotic only [4]: 1 µg/mL; MIC, antibiotic + 2 μg/ml (3.375 μM) 600-Da BPEI [5]: 0.25 µg/mL; MIC, antibiotic + 4 μg/ml (6.75 μM) 600-Da BPEI [5]: 0.25 µg/mL; MIC of antibiotic only [5]: 0.25 µg/mL
C[C@@H](O)[C@H]1C(=O)N2C(C(=O)O)=C(S[C@@H]3CN[C@H](C(=O)N(C)C)C3)[C@H](C)[C@H]12 [meropenem] |  |  |  |  | MIC ([3]; isolates OU15, OU19, OU22, agent alone (data not shown), read-out: MIC): 16 to 64 µg/mL; interaction with BPEI600 [3]: no synergy (no synergy (FICI≥1))
CN[C@H](CC(C)C)C(=O)N[C@H]1C(=O)N[C@@H](CC(N)=O)C(=O)N[C@H]2C(=O)N[C@H]3C(=O)N[C@H](C(=O)N[C@H](C(=O)O)c4cc(O)cc(O)c4-c4cc3ccc4O)[C@H](O)c3ccc(c(Cl)c3)Oc3cc2cc(c3O[C@@H]2O[C@H](CO)[C@@H](O)[C@H](O)[C@H]2O[C@H]2C[C@](C)(N)[C@H](O)[C@H](C)O2)Oc2ccc(cc2Cl)[C@H]1O [vancomycin] | 2 µg/mL (≈ 1.38 µM) | 1 µg/mL (≈ 0.69 µM) |  |  | MIC, antibiotic + 2 μg/ml (3.375 μM) 600-Da BPEI [4]: 2 µg/mL; MIC, antibiotic + 4 μg/ml (6.75 μM) 600-Da BPEI [4]: 0.5 µg/mL; MIC of antibiotic only [4]: 2 µg/mL; MIC, antibiotic + 2 μg/ml (3.375 μM) 600-Da BPEI [5]: 1 µg/mL; MIC, antibiotic + 4 μg/ml (6.75 μM) 600-Da BPEI [5]: 1 µg/mL; MIC of antibiotic only [5]: 1 µg/mL
Gentamicin | ≤ 4 µg/mL | ≤ 4 µg/mL |  |  | 
